As usually defined, the mortality is the percentage killed.

The source of these data is ChEMBL document CHEMBL3046536, “Synthesis, crystal structure, and insecticidal activity of novel N-alkyloxyoxalyl derivatives of 2-arylpyrrole” (2008).

Holding throughout (assay type): functional
Assay [1] has as its system Tetranychus cinnabarinus. Kind of assay: Insecticidal activity against Tetranychus cinnabarinus (carmine spider mite) infested on Sieva bean plants leaves exposed to compound formulation at 50 mg/kg assessed as insect mortality measured 2 days post compound treatment. The note with it: 48 h.
In assay [2] the test system is Tetranychus cinnabarinus. Kind of assay: Insecticidal activity against Tetranychus cinnabarinus (carmine spider mite) infested on Sieva bean plants leaves exposed to compound formulation at 100 mg/kg assessed as insect mortality measured 2 days post compound treatment. The note with it: 48 h.
Assay [3] deals with Tetranychus cinnabarinus. Put plainly: Insecticidal activity against Tetranychus cinnabarinus (carmine spider mite) infested on Sieva bean plants leaves exposed to compound formulation at 200 mg/kg assessed as insect mortality measured 2 days post compound treatment. Particulars: 48 h.
The subject of assay [4] is Culex pipiens pallens. Kind of assay: Insecticidal activity against Culex pipiens pallens (mosquito) fourth-instar larvae assessed as insect mortality at 0.1 mg/kg measured 2 days post compound treatment. The note with it: 48 h.
The test system of assay [5] is Culex pipiens pallens. Kind of assay: Insecticidal activity against Culex pipiens pallens (mosquito) fourth-instar larvae assessed as insect mortality at 0.25 mg/kg measured 2 days post compound treatment. The note with it: 48 h.
The test system of assay [6] is Culex pipiens pallens. Put plainly: Insecticidal activity against Culex pipiens pallens (mosquito) fourth-instar larvae assessed as insect mortality at 0.5 mg/kg measured 2 days post compound treatment. The note with it: 48 h.
Assay [7] relates to Mythimna separata. Put plainly: Insecticidal activity against Mythimna separata (Oriental armyworm) fourth-instar larvae infested compound pre-treated corn leaves assessed as insect mortality at 10 mg/kg measured 2 days post compound treatment.
For assay [8], the system named is Mythimna separata. Kind of assay: Insecticidal activity against Mythimna separata (Oriental armyworm) fourth-instar larvae infested compound pre-treated corn leaves assessed as insect mortality at 20 mg/kg measured 2 days post compound treatment.
Assay [9] concerns Mythimna separata. Kind of assay: Insecticidal activity against Mythimna separata (Oriental armyworm) fourth-instar larvae infested compound pre-treated corn leaves assessed as insect mortality at 5 mg/kg measured 2 days post compound treatment.

In the case of `N#Cc1c(Br)c(C(F)(F)F)n(COC(=O)C(=O)Nc2ccccc2)c1-c1ccc(Cl)cc1`, the mortality at 50 mg/kg in the assay on Tetranychus cinnabarinus [1] turned out to be 86%. In addition, in the assay on Tetranychus cinnabarinus [2], the mortality at 100 mg/kg is 92%. Further, the mortality at 200 mg/kg in the assay on Tetranychus cinnabarinus [3] came to 99%. The mortality at 0.1 mg/kg in the assay with Culex pipiens pallens [4] turned out to be 0%. Besides, the mortality at 0.25 mg/kg with Culex pipiens pallens [5] stood at 30%. The mortality at 0.5 mg/kg with Culex pipiens pallens [6] was 100%. In addition, the mortality at 10 mg/kg with Mythimna separata [7] is 0%. In addition, in the assay with Mythimna separata [8], the mortality at 20 mg/kg came out at 100%.
`CCCCNC(=O)C(=O)OCn1c(-c2ccc(Cl)cc2)c(C#N)c(Br)c1C(F)(F)F`: the mortality at 100 mg/kg in the assay with Tetranychus cinnabarinus [2] came to 0%. For the same compound, the mortality at 200 mg/kg with Tetranychus cinnabarinus [3] stood at 48%. Further, the mortality at 0.1 mg/kg in the assay with Culex pipiens pallens [4] came out at 20%. In addition, the mortality at 0.25 mg/kg in the assay with Culex pipiens pallens [5] came out at 90%. The mortality at 0.5 mg/kg in the assay on Culex pipiens pallens [6] came out at 100%. The mortality at 10 mg/kg with Mythimna separata [7] amounted to 0%. Also, in the assay with Mythimna separata [8], the mortality at 20 mg/kg is 100%.
As to `CCCCOC(=O)C(=O)OCn1c(-c2ccc(Cl)cc2)c(C#N)c(Br)c1C(F)(F)F`, in the assay with Mythimna separata [7], the mortality at 10 mg/kg is 100%. Also, the mortality at 20 mg/kg in the assay with Mythimna separata [8] was found to be 100%.
Turning to `Cc1ccc(NC(=O)C(=O)OCn2c(-c3ccc(Cl)cc3)c(C#N)c(Br)c2C(F)(F)F)cc1`, the mortality at 50 mg/kg in the assay on Tetranychus cinnabarinus [1] worked out at 79%. Besides, in the assay on Tetranychus cinnabarinus [2], the mortality at 100 mg/kg was found to be 90%. For the same compound, in the assay with Tetranychus cinnabarinus [3], the mortality at 200 mg/kg is 96%. In the assay with Culex pipiens pallens [4], the mortality at 0.1 mg/kg stood at 40%. In addition, the mortality at 0.25 mg/kg with Culex pipiens pallens [5] is 100%. Also, the mortality at 0.5 mg/kg with Culex pipiens pallens [6] stood at 100%. The mortality at 10 mg/kg with Mythimna separata [7] was found to be 10%. The mortality at 20 mg/kg in the assay with Mythimna separata [8] is 100%.
Consider `Cc1ccccc1NC(=O)C(=O)OCn1c(-c2ccc(Cl)cc2)c(C#N)c(Br)c1C(F)(F)F`, for which, in the assay on Culex pipiens pallens [4], the mortality at 0.1 mg/kg was 100%. The mortality at 0.25 mg/kg in the assay on Culex pipiens pallens [5] was determined as 100%. The mortality at 0.5 mg/kg in the assay on Culex pipiens pallens [6] worked out at 100%. Moreover, the mortality at 10 mg/kg in the assay with Mythimna separata [7] stood at 10%. The mortality at 20 mg/kg in the assay on Mythimna separata [8] is 100%.
In the case of `CC(C)COC(=O)C(=O)OCn1c(-c2ccc(Cl)cc2)c(C#N)c(Br)c1C(F)(F)F`, the mortality at 200 mg/kg in the assay on Tetranychus cinnabarinus [3] is 100%. Moreover, in the assay on Culex pipiens pallens [4], the mortality at 0.1 mg/kg was 10%. In addition, in the assay on Culex pipiens pallens [5], the mortality at 0.25 mg/kg is 90%. The mortality at 0.5 mg/kg in the assay on Culex pipiens pallens [6] turned out to be 100%. In addition, the mortality at 5 mg/kg in the assay with Mythimna separata [9] came out at 0%. For the same compound, in the assay with Mythimna separata [7], the mortality at 10 mg/kg stood at 100%. Moreover, the mortality at 20 mg/kg with Mythimna separata [8] was 100%.
Turning to `CC(C)(C)NC(=O)C(=O)OCn1c(-c2ccc(Cl)cc2)c(C#N)c(Br)c1C(F)(F)F`, in the assay on Culex pipiens pallens [4], the mortality at 0.1 mg/kg is 10%. In addition, the mortality at 0.25 mg/kg in the assay with Culex pipiens pallens [5] turned out to be 30%. The mortality at 0.5 mg/kg with Culex pipiens pallens [6] worked out at 100%. The mortality at 10 mg/kg in the assay on Mythimna separata [7] is 20%. Moreover, the mortality at 20 mg/kg in the assay with Mythimna separata [8] was 100%.
Regarding `N#Cc1c(Br)c(C(F)(F)F)n(COC(=O)C(=O)OCC2CCCC2)c1-c1ccc(Cl)cc1`, the mortality at 50 mg/kg in the assay with Tetranychus cinnabarinus [1] worked out at 84%. Further, the mortality at 100 mg/kg in the assay with Tetranychus cinnabarinus [2] amounted to 90%. The mortality at 200 mg/kg in the assay on Tetranychus cinnabarinus [3] is 100%. Also, the mortality at 0.1 mg/kg in the assay on Culex pipiens pallens [4] stood at 20%. Moreover, the mortality at 0.25 mg/kg with Culex pipiens pallens [5] stood at 100%. Further, the mortality at 0.5 mg/kg in the assay with Culex pipiens pallens [6] was determined as 100%. In the assay on Mythimna separata [7], the mortality at 10 mg/kg is 30%. Also, the mortality at 20 mg/kg with Mythimna separata [8] was determined as 100%.
With `CC(C)(C)OC(=O)C(=O)OCn1c(-c2ccc(Cl)cc2)c(C#N)c(Br)c1C(F)(F)F`, in the assay on Mythimna separata [7], the mortality at 10 mg/kg worked out at 10%. In the assay with Mythimna separata [8], the mortality at 20 mg/kg turned out to be 100%.
Consider `CCC(C)NC(=O)C(=O)OCn1c(-c2ccc(Cl)cc2)c(C#N)c(Br)c1C(F)(F)F` (stereo not drawn), for which the mortality at 10 mg/kg with Mythimna separata [7] stood at 30%. The mortality at 20 mg/kg with Mythimna separata [8] is 100%.
As to `N#Cc1c(Br)c(C(F)(F)F)n(COC(=O)C(=O)OCCF)c1-c1ccc(Cl)cc1`, the mortality at 50 mg/kg in the assay on Tetranychus cinnabarinus [1] turned out to be 83%. Besides, in the assay on Tetranychus cinnabarinus [2], the mortality at 100 mg/kg is 92%. For the same compound, the mortality at 200 mg/kg in the assay on Tetranychus cinnabarinus [3] worked out at 100%. The mortality at 0.1 mg/kg in the assay on Culex pipiens pallens [4] stood at 100%. The mortality at 0.25 mg/kg in the assay with Culex pipiens pallens [5] came out at 100%. Besides, the mortality at 0.5 mg/kg in the assay with Culex pipiens pallens [6] came out at 100%. Also, the mortality at 10 mg/kg with Mythimna separata [7] came to 10%. Also, in the assay with Mythimna separata [8], the mortality at 20 mg/kg is 100%.
In the case of `CC(C)NC(=O)C(=O)OCn1c(-c2ccc(Cl)cc2)c(C#N)c(Br)c1C(F)(F)F`, the mortality at 50 mg/kg with Tetranychus cinnabarinus [1] came out at 87%. Moreover, the mortality at 100 mg/kg in the assay on Tetranychus cinnabarinus [2] turned out to be 95%. In the assay with Tetranychus cinnabarinus [3], the mortality at 200 mg/kg came to 100%. Also, the mortality at 0.1 mg/kg with Culex pipiens pallens [4] is 30%. Also, the mortality at 0.25 mg/kg in the assay on Culex pipiens pallens [5] is 80%. Also, the mortality at 0.5 mg/kg with Culex pipiens pallens [6] stood at 100%. In addition, the mortality at 10 mg/kg with Mythimna separata [7] turned out to be 20%. For the same compound, the mortality at 20 mg/kg with Mythimna separata [8] was 100%.
As for `CCCNC(=O)C(=O)OCn1c(-c2ccc(Cl)cc2)c(C#N)c(Br)c1C(F)(F)F`, in the assay on Culex pipiens pallens [4], the mortality at 0.1 mg/kg was 80%. Further, the mortality at 0.25 mg/kg in the assay with Culex pipiens pallens [5] came to 100%. The mortality at 0.5 mg/kg in the assay with Culex pipiens pallens [6] was determined as 100%. Moreover, the mortality at 10 mg/kg in the assay with Mythimna separata [7] is 25%. In addition, the mortality at 20 mg/kg with Mythimna separata [8] worked out at 100%.
Turning to `N#Cc1c(Br)c(C(F)(F)F)n(COC(=O)C(=O)Nc2ccc(Cl)cc2)c1-c1ccc(Cl)cc1`, in the assay on Tetranychus cinnabarinus [1], the mortality at 50 mg/kg amounted to 84%. Moreover, the mortality at 100 mg/kg in the assay with Tetranychus cinnabarinus [2] was found to be 92%. Also, the mortality at 200 mg/kg in the assay with Tetranychus cinnabarinus [3] came out at 100%. For the same compound, the mortality at 0.1 mg/kg in the assay on Culex pipiens pallens [4] was determined as 0%. Also, the mortality at 0.25 mg/kg in the assay with Culex pipiens pallens [5] worked out at 10%. In addition, the mortality at 0.5 mg/kg with Culex pipiens pallens [6] was 100%. Moreover, the mortality at 10 mg/kg with Mythimna separata [7] was found to be 20%. Moreover, the mortality at 20 mg/kg with Mythimna separata [8] came out at 100%.
